Assay results published in patent publication US20150158810A1, “PREVENTION OR SUPPRESSION OF CYRSTALLISATION OF BORIC ACID PRESENT IN AN AQUEOUS PHASE” (COMMISSARIAT À L'ÉNERGIE ATOMIQUE ET AUX ÉNERGIES …, priority 2012, published 2015).

Experiments:
[1] = crystallization of boric acid in aqueous phase, temperature cycle N; assay type: physicochemical
Description: (§1) The tests described in the examples hereafter are conducted by means of a device of the type of the one illustrated in the single FIGURE.
(§2) The device consists of a beaker 10 with a double glass wall 11, inside which flows a heat transfer fluid 12. The beaker 10 also contains a U-shaped metal tube 13, which contains a circulating heat transfer fluid 14.
(§3) The temperatures of the heat transfer fluids 12 and 14 are each adjusted independently of the other, by a heat generator (not shown in the single FIGURE).
(§4) However, the temperature of the heat transfer fluid 14 is adjusted so that it is always strictly less than that of the heat transfer fluid 12, typically lower by 1° C. to 10° C. If it is assumed that heat conduction of the material making up the metal tube 13 occurs without any notable loss, the walls of the tube 13 […] thus form a so-called ? cold ? element.
(§5) Two temperature cycles may be applied to an aqueous phase 15 containing boric acid, which is poured into the beaker 10.
A temperature cycle ? […]
(§6) Regardless of the relevant temperature cycle, a crystallization rate is defined at the end of one of these temperature cycles, which corresponds to the ratio of the mass of boric acid crystals measured at the end of this cycle, to the total initially introduced mass of boric acid.

[2] = crystallization of boric acid in aqueous phase, temperature cycle P (with a penalty); assay type: physicochemical
Description: as §1, §2, §3, §4, §5
A temperature cycle ? P ? […]
as §6

Row | Structure (SMILES) | reduction in the crystallization of boric acid in an aqueous phase in presence of the compound [1] | reduction of the crystallization of boric acid in an aqueous phase in presence of the compound [2]
1 | OCC(CO)(CO)CO [pentaerythritol] | appreciable reduction | large reduction
2 | NC(CO)(CO)CO [Tris, 2-amino-2-(hydroxymethyl)-propane-1,3-diol] | appreciable reduction | –
